The text below walks through data of ChEMBL document CHEMBL1201862, “PubChem BioAssay data set” (2004).

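48-hour exposure; five concentrations; linearly interpolated endpoints. Here, GI50 denotes the concentration required for 50% inhibition of growth.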 Calls of active or inactive are those of the source. Cut-off read from the data, not from the text of the source: active = GI50 up to about 1.1 µM and inactive = higher.

Test systems include LOX IMVI; T47D; OVCAR-3; SK-MEL-2; HCT-15; UACC-257; A549; IGROV-1; ACHN; NCI-H226; COLO 205; CCRF-CEM; U-251; NCI-H460; HOP-92; EKVX; OVCAR-4; PC-3; 786-0.
Holding throughout (assay): inhibition of tumour cell growth, NCI panel, 48 h

On to `CO[C@H]1[C@@H](O)[C@@H](C)O[C@@H](O[C@H]2CC[C@@]3(C)[C@H](CC[C@@H]4[C@@H]3CC[C@]3(C)[C@@H](C5=CC(=O)OC5)[C@@H](OC(C)=O)C[C@]43O)C2)[C@@H]1O` [NERITALOSIDE], for which the GI50 was 0.0708 µM (active) with LOX IMVI; 0.162 µM (active) in the assay on T47D; 0.0229 µM (active) in the assay on OVCAR-3; 0.129 µM (active) in the assay on SK-MEL-2; 0.0973 µM in the assay with HCT-15; 0.1 µM (active) in the assay on UACC-257. Moreover, the GI50 in the assay with A549 was 0.0104 µM (active); with IGROV-1 it was 0.0371 µM (active); in the assay on ACHN, 0.0188 µM (active); in the assay on NCI-H226, 0.173 µM (active); in the assay with COLO 205 it was 0.156 µM (active); with CCRF-CEM, 0.029 µM (active). The GI50 with U-251 was 0.0798 µM (active); in the assay with NCI-H460, 0.0165 µM (active); in the assay on HOP-92, 0.149 µM (active); in the assay with EKVX it was 0.0156 µM (active); in the assay on OVCAR-4, 0.0601 µM (active); with PC-3, 0.0256 µM (active). In the assay with 786-0, the GI50 was 0.0176 µM (active).
Take `COc1c(O)ccc(C2=Cc3ccc(O)cc3OC2)c1OC`: the GI50 with LOX IMVI is 26.1 µM (inactive); in the assay on T47D, 25.6 µM (inactive); with OVCAR-3, 14.9 µM (inactive); in the assay with SK-MEL-2, 23.4 µM (inactive); with HCT-15 it was 14.1 µM; in the assay on UACC-257 it was 30.3 µM (inactive). Further, the GI50 was 24.8 µM (inactive) in the assay with A549; 25.8 µM (inactive) in the assay on IGROV-1; 6.56 µM (inactive) in the assay with ACHN; 23.4 µM (inactive) with NCI-H226; 28.2 µM (inactive) in the assay on COLO 205; 4.37 µM (inactive) in the assay on CCRF-CEM. Moreover, the GI50 in the assay on U-251 was 26 µM (inactive); in the assay with NCI-H460, 31 µM (inactive); with HOP-92 it was 24 µM (inactive); in the assay with EKVX, 15.1 µM (inactive); in the assay on OVCAR-4 it was 23.9 µM (inactive); in the assay on PC-3, 18.6 µM (inactive). For the same molecule, the GI50 with 786-0 was 16.3 µM (inactive).
`Cn1c2ccc3cc2c(=S)c2cc(ccc21)OCCOCCOCCOCCOCCOCCO3`: the GI50 in the assay with LOX IMVI is > 10 µM (inactive); in the assay with T47D it was > 10 µM (inactive); in the assay with OVCAR-3, > 10 µM (inactive); in the assay on SK-MEL-2, > 10 µM (inactive); in the assay on HCT-15 it was more than 10 µM; in the assay with UACC-257 it was > 10 µM (inactive). The GI50 in the assay with A549, in the assay on IGROV-1, with ACHN, in the assay with NCI-H226, in the assay on COLO 205 and in the assay on CCRF-CEM was > 10 µM (inactive) throughout. The GI50 with U-251, with NCI-H460, with HOP-92, with EKVX, with OVCAR-4 and in the assay on PC-3 was > 10 µM (inactive) throughout. Further, the GI50 in the assay on 786-0 was > 10 µM (inactive).
For `COc1cc([C@H]2CC(=O)C[C@@H](c3cc(OC)c(OC)c(OC)c3)C23C(=O)c2ccccc2C3=O)cc(OC)c1OC`, the GI50 in the assay on LOX IMVI was > 100 µM (inactive); with T47D it was > 100 µM (inactive); in the assay with OVCAR-3 it was > 100 µM (inactive); with SK-MEL-2 it was > 100 µM (inactive); in the assay on HCT-15, more than 100 µM; in the assay with UACC-257 it was > 100 µM (inactive). The GI50 with A549, with IGROV-1, with ACHN, with NCI-H226, in the assay with COLO 205 and in the assay on CCRF-CEM was > 100 µM (inactive) each time. Also, the GI50 in the assay on U-251 is > 100 µM (inactive); in the assay with NCI-H460 it was > 100 µM (inactive); with HOP-92, > 100 µM (inactive); in the assay on EKVX, 91.8 µM (inactive); with OVCAR-4 it was > 100 µM (inactive); in the assay on PC-3, > 100 µM (inactive). Also, the GI50 in the assay on 786-0 was > 100 µM (inactive).
Turning to `O=C(O)c1ccc2c(c1)CC1(C2)Cc2cc3c(cc2C1=O)CCC3` (stereo not given), the GI50 in the assay with LOX IMVI was > 100 µM (inactive); in the assay with T47D, 34.4 µM (inactive); with OVCAR-3, > 100 µM (inactive); in the assay with SK-MEL-2 it was > 100 µM (inactive); in the assay with HCT-15, 79.6 µM; in the assay on UACC-257, > 100 µM (inactive). Further, the GI50 in the assay with A549 is 69 µM (inactive); in the assay on IGROV-1 it was > 100 µM (inactive); with ACHN, > 100 µM (inactive); in the assay with NCI-H226 it was > 100 µM (inactive); in the assay on COLO 205, > 100 µM (inactive); in the assay with CCRF-CEM it was > 100 µM (inactive). Moreover, the GI50 in the assay with U-251 was > 100 µM (inactive); in the assay with NCI-H460, > 100 µM (inactive); with HOP-92 it was 69 µM (inactive); in the assay on EKVX, > 100 µM (inactive); with OVCAR-4 it was > 100 µM (inactive); in the assay on PC-3 it was > 100 µM (inactive). The GI50 with 786-0 is > 100 µM (inactive).
As for `Cc1oc2c(c1C)S(=O)(=O)C(C#N)C(c1ccccc1)N2` (stereo not given), the GI50 in the assay with LOX IMVI is 43.8 µM (inactive); with T47D it was 62.5 µM (inactive); with OVCAR-3, 65.6 µM (inactive); with SK-MEL-2, 61.8 µM (inactive); in the assay on HCT-15, 38.7 µM; in the assay with UACC-257 it was 56.6 µM (inactive). The GI50 is 44.7 µM (inactive) in the assay on A549; > 100 µM (inactive) in the assay with IGROV-1; > 100 µM (inactive) in the assay on ACHN; > 100 µM (inactive) in the assay with NCI-H226; 29.3 µM (inactive) in the assay with COLO 205; 20.4 µM (inactive) in the assay on CCRF-CEM. In addition, the GI50 with U-251 is 55 µM (inactive); in the assay with NCI-H460, 41 µM (inactive); in the assay on HOP-92 it was 64.6 µM (inactive); in the assay with EKVX it was > 100 µM (inactive); with OVCAR-4 it was 29.6 µM (inactive); with PC-3 it was 66.5 µM (inactive). In addition, the GI50 in the assay with 786-0 was 40.9 µM (inactive).
For `[N-]=[N+]=CC(=O)OCC1NC(=O)C(COC(=O)C=[N+]=[N-])NC1=O` (stereo not given), the GI50 in the assay on LOX IMVI is > 100 µM (inactive); in the assay on T47D, > 100 µM (inactive); with OVCAR-3 it was > 100 µM (inactive); in the assay on SK-MEL-2, > 100 µM (inactive); in the assay with HCT-15, more than 100 µM; in the assay with UACC-257 it was > 100 µM (inactive). Further, the GI50 in the assay on A549, in the assay on IGROV-1, in the assay with ACHN, in the assay on NCI-H226, in the assay on COLO 205 and with CCRF-CEM was > 100 µM (inactive) throughout. Moreover, the GI50 in the assay with U-251, in the assay on NCI-H460, with HOP-92, with EKVX, in the assay on OVCAR-4 and in the assay with PC-3 was > 100 µM (inactive) in each case. Moreover, the GI50 in the assay with 786-0 was > 100 µM (inactive).
Regarding `NCCSCCC(=O)O`, the GI50 in the assay with LOX IMVI was 39 µM (inactive); in the assay with T47D, > 33.5 µM (inactive); in the assay with OVCAR-3, > 100 µM (inactive); in the assay on SK-MEL-2, > 83.8 µM (inactive); in the assay on HCT-15, more than 59 µM; in the assay with UACC-257, > 59 µM (inactive). The GI50 is > 69.2 µM (inactive) with A549; > 100 µM (inactive) with IGROV-1; > 25.6 µM (inactive) with ACHN; > 100 µM (inactive) with NCI-H226; 30.4 µM (inactive) in the assay with COLO 205; 23 µM (inactive) in the assay with CCRF-CEM. Besides, the GI50 in the assay with U-251 is > 44 µM (inactive); in the assay with NCI-H460, > 12.4 µM (inactive); with HOP-92, > 100 µM (inactive); with EKVX it was > 100 µM (inactive); in the assay with OVCAR-4 it was > 100 µM (inactive); with PC-3 it was > 82 µM (inactive). The GI50 with 786-0 is > 38.1 µM (inactive).
Consider `O=C1c2ccccc2C(=O)[C@@]23O[C@@]12C1(Oc2cccc4cccc(c24)O1)[C@@H]1O[C@@H]1[C@@H]3O`, for which the GI50 in the assay on LOX IMVI is 4.22 µM (inactive); with T47D, 9.16 µM (inactive); in the assay with OVCAR-3 it was 4.65 µM (inactive); in the assay on SK-MEL-2, 19.2 µM (inactive); with HCT-15 it was 5.01 µM; with UACC-257, 15.8 µM (inactive). The GI50 in the assay on A549 was 18.4 µM (inactive); in the assay with IGROV-1 it was 13.6 µM (inactive); with ACHN, 12.5 µM (inactive); with NCI-H226, 8.39 µM (inactive); with COLO 205, 9.91 µM (inactive); in the assay with CCRF-CEM, 1.76 µM (inactive). For the same molecule, the GI50 in the assay on U-251 was 7.1 µM (inactive); in the assay with NCI-H460 it was 9.86 µM (inactive); in the assay with HOP-92, 15.8 µM (inactive); with EKVX, 20.5 µM (inactive); in the assay on OVCAR-4, 4.19 µM (inactive); with PC-3, 15.2 µM (inactive). Further, the GI50 in the assay on 786-0 was 4.23 µM (inactive).
Turning to `Cc1cccc(N2C(=O)C3ON(C(C(N)=O)c4ccccc4)C(c4c5ccccc5c(Cl)c5ccccc45)C3C2=O)c1C` (stereo not given), the GI50 was 7.1 µM (inactive) with LOX IMVI; 9.57 µM (inactive) in the assay on T47D; 8.43 µM (inactive) in the assay on OVCAR-3; 9.23 µM (inactive) in the assay on SK-MEL-2; 7.38 µM in the assay with HCT-15; 6.87 µM (inactive) in the assay with UACC-257. Also, the GI50 with A549 was 14.3 µM (inactive); in the assay with IGROV-1, 11.6 µM (inactive); in the assay on ACHN, 9.16 µM (inactive); with NCI-H226 it was 7.13 µM (inactive); with COLO 205, 9.42 µM (inactive); in the assay with CCRF-CEM it was 2.55 µM (inactive). Besides, the GI50 with U-251 was 8.02 µM (inactive); in the assay on NCI-H460, 9.71 µM (inactive); in the assay with HOP-92, 7.89 µM (inactive); with EKVX, 9.23 µM (inactive); in the assay with OVCAR-4, 9.57 µM (inactive); in the assay on PC-3 it was 7.78 µM (inactive). The GI50 in the assay with 786-0 is 9.62 µM (inactive).
